Series [1] deals with human red blood cells (hRBC). In words: Hemolysis of human red blood cells. Format: cell-based. The following applies: red cells of human, 1 h. The method, boiled down: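 PBS-washed human red blood cells (20% v/v) were incubated with peptide at 200 μg/mL for 1 h at 37 °C with shaking. Supernatant OD was read at 540 nm after 8-fold dilution. Hemolysis is expressed as percent of the water control.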

Series [2] deals with Escherichia coli ATCC 25922. The note with it: ATCC 25922. The method, boiled down: (§1)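 Two-fold serial dilutions of peptide, in water with polysorbate 80 (0.002% final), met bacteria adjusted to 0.5 McFarland then diluted to about 5×10^5 CFU/mL. Medium was cation-adjusted Mueller-Hinton II broth; peptide stocks were 1 mg/mL in sterile water.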
Series [3] has as its system Escherichia coli MCR-1 Af 45. In short, it runs like this: as §1
Series [4] has as its system Klebsiella pneumoniae SSI3010. The following applies: SSI3010. In short, it runs like this:
as §1

The mark [5] stands for this setting: Mueller-Hinton broth II, 18-20 hours at 35° C.

Where two headings read alike, the source gives them in different places. Bridge positions count the residues as written; N and C are the ends. Square brackets hold non-standard residues; d marks the D form. Peptide text beside a SMILES is read from it. Pro(4R-NH2) = N[C@H]1CN[C@H](C(=O)O)C1; Gly(N-2-aminoethyl) = NCCNCC(=O)O; Hyp = O=C(O)[C@@H]1C[C@@H](O)CN1; Cha = N[C@@H](CC1CCCCC1)C(=O)O; Pen = CC(C)(S)[C@H](N)C(=O)O; dDab = NCC[C@@H](N)C(=O)O; Dab = NCC[C@H](N)C(=O)O; Nlys = NCCCCNCC(=O)O

For `CC[C@H](C)[C@H](NC(=O)[C@@H]1C[C@@H](O)CN1C(=O)[C@@H](N)C(C)C)C(=O)N[C@H](C(=O)N[C@@H](Cc1ccc(O)cc1)C(=O)N[C@@H]1C(=O)N[C@@H](CC(N)=O)C(=O)N[C@@H](CCCNC(=N)N)C(=O)N[C@@H](CCN)C(=O)N[C@@H]([C@@H](C)O)C(=O)N[C@H](CCCCN)C(=O)N[C@@H](CCCCN)C(=O)N[C@H](C(=O)N[C@@H](CCN)C(=O)N[C@@H](CCCNC(=N)N)C(=O)N[C@@H](Cc2ccc(O)cc2)C(=O)O)CSSC1(C)C)[C@@H](C)O` [Example 151] (HELM PEPTIDE1{V.[Hyp].I.T.Y.[Pen].N.R.[Dab].T.[dK].K.C.[Dab].R.Y}$PEPTIDE1,PEPTIDE1,6:R3-13:R3$$$V2.0), the “Hemolysis at 0.2 g/L” value in series [1] is 0%. Besides, the “Escherichia coli ATCC 25922 MIC” value in series [2] was 0.25 µg/mL. For the same compound, in series [3] (setting [5]), the “Escherichia coli MCR-1 Af 45 MIC” value is 0.25 µg/mL. Further, the “Klebsiella pneumoniae SSI3010 MIC” value in series [4] amounted to 0.5 µg/mL.

Regarding `CC[C@H](C)[C@H](NC(=O)[C@@H](NC(=O)[C@@H]1C[C@@H](N)CN1C(=O)[C@@H](NC(=O)[C@@H]1C[C@@H](N)CN1)C(C)C)[C@@H](C)CC)C(=O)N[C@@H](Cc1ccc(O)cc1)C(=O)N[C@@H]1C(=O)N[C@@H](CC(N)=O)C(=O)N[C@@H](CCCNC(=N)N)C(=O)N[C@@H](CCN)C(=O)N[C@@H]([C@@H](C)O)C(=O)N[C@H](CCN)C(=O)N[C@@H](CCCCN)C(=O)N[C@H](C(=O)N[C@@H](CCN)C(=O)N[C@@H](CCCNC(=N)N)C(=O)N[C@@H](CC2CCCCC2)C(=O)O)CSSC1(C)C` [Example 20, Pro((4R)NH2)-Val-Pro((4R)NH2)-Ile-Ile-Tyr-Pen-Asn-Arg-Dab-Thr-^DDab-Lys-Cys-Dab-Arg-Cha] (H-[Pro(4R-NH2)]V[Pro(4R-NH2)]IIY[Pen]NR[Dab]T[dDab]KC[Dab]R[Cha]-OH; disulfide 7-14), the “Hemolysis at 0.2 g/L” value in series [1] amounted to 1%. In series [2], the “Escherichia coli ATCC 25922 MIC” value was no more than 0.03125 µg/mL. Besides, the “Escherichia coli MCR-1 Af 45 MIC” value in series [3] (MCR-1 Af 45) is no more than 0.03125 µg/mL. In addition, the “Klebsiella pneumoniae SSI3010 MIC” value in series [4] was 0.125 µg/mL.

For the compound `CCCC[C@H](NC(=O)[C@H](CCCNC(=N)N)NC(=O)[C@H](CCN)NC(=O)[C@@H]1CSSC(C)(C)[C@H](NC(=O)[C@H](Cc2ccc(O)cc2)NC(=O)[C@@H](NC(=O)[C@@H](NC(=O)[C@@H]2CCCN2C(=O)[C@@H](NC(=O)[C@@H]2C[C@@H](N)CN2)C(C)C)[C@@H](C)CC)[C@@H](C)CC)C(=O)N[C@@H](CC(N)=O)C(=O)N[C@@H](CCCNC(=N)N)C(=O)N[C@@H](CCN)C(=O)N[C@@H]([C@@H](C)O)C(=O)N[C@H](CCN)C(=O)N[C@@H](CCCCN)C(=O)N1)C(=O)O` [Example 4, Pro((4R)NH2)-Val-Pro-Ile-Ile-Tyr-Pen-Asn-Arg-Dab-Thr-^DDab-Lys-Cys-Dab-Arg-Nle] (HELM PEPTIDE1{[N[C@H]1CN[C@H](C(=O)[*:2])C1].V.P.I.I.Y.[Pen].N.R.[Dab].T.[NCC[C@@H](N[*:1])C(=O)[*:2]].K.C.[Dab].R.[Nle]}$PEPTIDE1,PEPTIDE1,7:R3-14:R3$$$V2.0), the “Hemolysis at 0.2 g/L” value in series [1] amounted to 0%. In addition, the “Escherichia coli ATCC 25922 MIC” value in series [2] was determined as 0.125 µg/mL. Also, the “Escherichia coli MCR-1 Af 45 MIC” value in series [3] (MCR-1 Af 45) is 0.125 µg/mL. Moreover, the “Klebsiella pneumoniae SSI3010 MIC” value in series [4] was found to be 0.125 µg/mL.

As to `CC[C@H](C)[C@H](NC(=O)[C@@H](NC(=O)[C@@H]1CCCN1C(=O)[C@@H](NC(=O)[C@@H]1CCCN1C(=O)[C@H](CCCCN)NC(=O)CNCCCCN)C(C)C)[C@@H](C)CC)C(=O)N[C@@H](Cc1ccc(O)cc1)C(=O)N[C@H]1CSSC[C@@H](C(=O)N[C@@H](CCN)C(=O)N[C@@H](CCCNC(=N)N)C(=O)N[C@@H](Cc2ccc(O)cc2)C(=O)O)NC(=O)[C@H](CCCCN)NC(=O)[C@@H](CCN)NC(=O)[C@H]([C@@H](C)O)NC(=O)CN(CCCCN)C(=O)[C@H](CCCNC(=N)N)NC(=O)[C@H](CC(N)=O)NC1=O` [Example 112] (H-[Nlys]KPVPIIYCNR[Nlys]T[dDab]KC[Dab]RY-OH; disulfide 9-16), the “Hemolysis at 0.2 g/L” value in series [1] came to 0%. Further, the “Escherichia coli ATCC 25922 MIC” value in series [2] was found to be 0.25 µg/mL. Besides, the “Escherichia coli MCR-1 Af 45 MIC” value in series [3] (MCR-1 Af 45) turned out to be 0.25 µg/mL. For the same compound, the “Klebsiella pneumoniae SSI3010 MIC” value in series [4] was found to be 0.125 µg/mL.

On to `CC[C@H](C)[C@H](NC(=O)[C@@H](NC(=O)[C@@H]1CCCN1C(=O)[C@@H](NC(=O)[C@@H]1CCCN1C(=O)[C@H](CCCCN)NC(=O)CNCCCN)C(C)C)[C@@H](C)CC)C(=O)N[C@@H](Cc1ccc(O)cc1)C(=O)N[C@H]1CSSC[C@@H](C(=O)N[C@@H](CCN)C(=O)N[C@@H](CCCNC(=N)N)C(=O)N[C@@H](Cc2ccc(O)cc2)C(=O)O)NC(=O)[C@H](CCCCN)NC(=O)[C@@H](CCN)NC(=O)[C@H]([C@@H](C)O)NC(=O)[C@H](CCN)NC(=O)[C@H](CCCNC(=N)N)NC(=O)[C@H](CC(N)=O)NC1=O` [Example 98] (HELM PEPTIDE1{[NCCCNCC(=O)[*:2]].K.P.V.P.I.I.Y.C.N.R.[Dab].T.[NCC[C@@H](N[*:1])C(=O)[*:2]].K.C.[Dab].R.Y}$PEPTIDE1,PEPTIDE1,9:R3-16:R3$$$V2.0), for which the “Hemolysis at 0.2 g/L” value in series [1] was found to be 0%. Moreover, the “Escherichia coli ATCC 25922 MIC” value in series [2] was no more than 0.03125 µg/mL. In addition, the “Escherichia coli MCR-1 Af 45 MIC” value in series [3] (MCR-1 Af 45) is no more than 0.03125 µg/mL. In series [4], the “Klebsiella pneumoniae SSI3010 MIC” value worked out at 0.0625 µg/mL.

On to `CC[C@H](C)[C@H](NC(=O)[C@@H](NC(=O)[C@@H]1CCCN1C(=O)[C@@H](NC(=O)[C@@H]1CCCN1C(=O)CN(CCN)C(=O)[C@@H](N)CCCCN)C(C)C)[C@@H](C)CC)C(=O)N[C@@H](Cc1ccc(O)cc1)C(=O)N[C@H]1CSSC[C@@H](C(=O)N[C@@H](CCN)C(=O)N[C@@H](CCCNC(=N)N)C(=O)N[C@@H](Cc2ccc(O)cc2)C(=O)O)NC(=O)[C@H](CCCCN)NC(=O)[C@@H](CCN)NC(=O)[C@H]([C@@H](C)O)NC(=O)[C@H](CCN)NC(=O)[C@H](CCCNC(=N)N)NC(=O)[C@H](CC(N)=O)NC1=O` [Example 99] (HELM PEPTIDE1{K.[NCCN(CC(=O)[*:2])[*:1]].P.V.P.I.I.Y.C.N.R.[Dab].T.[NCC[C@@H](N[*:1])C(=O)[*:2]].K.C.[Dab].R.Y}$PEPTIDE1,PEPTIDE1,9:R3-16:R3$$$V2.0; N-terminus assumed), for which the “Hemolysis at 0.2 g/L” value in series [1] stood at 0%. In addition, the “Escherichia coli ATCC 25922 MIC” value in series [2] was no more than 0.03125 µg/mL. Further, the “Escherichia coli MCR-1 Af 45 MIC” value in series [3] (MCR-1 Af 45) is no more than 0.03125 µg/mL. Moreover, in series [4], the “Klebsiella pneumoniae SSI3010 MIC” value amounted to 0.0625 µg/mL.

On to `CC[C@H](C)[C@H](NC(=O)[C@@H](NC(=O)[C@@H]1CCCN1C(=O)[C@@H](NC(=O)[C@@H]1CCCN1C(=O)[C@H](CCCCN)NC(=O)[C@@H](N)CCCCN)C(C)C)[C@@H](C)CC)C(=O)N[C@@H](Cc1ccc(O)cc1)C(=O)N[C@H]1CSSC[C@@H](C(=O)N[C@@H](CCN)C(=O)N[C@@H](CCCNC(=N)N)C(=O)N[C@H](C(=O)O)C(C)(C)C)NC(=O)[C@H](CCCCN)NC(=O)[C@@H](CCN)NC(=O)[C@H]([C@@H](C)O)NC(=O)[C@H](CCN)NC(=O)[C@H](CCCNC(=N)N)NC(=O)[C@H](CC(N)=O)NC1=O` [Example 84] (HELM PEPTIDE1{K.K.P.V.P.I.I.Y.C.N.R.[Dab].T.[NCC[C@@H](N[*:1])C(=O)[*:2]].K.C.[Dab].R.[CC(C)(C)[C@H](N[*:1])C(=O)O]}$PEPTIDE1,PEPTIDE1,9:R3-16:R3$$$V2.0), for which the “Hemolysis at 0.2 g/L” value in series [1] was determined as 0%. Further, the “Escherichia coli ATCC 25922 MIC” value in series [2] was found to be 0.0625 µg/mL. For the same compound, in series [3] (MCR-1 Af 45), the “Escherichia coli MCR-1 Af 45 MIC” value amounted to 0.0625 µg/mL. Moreover, the “Klebsiella pneumoniae SSI3010 MIC” value in series [4] stood at 0.125 µg/mL.

In the case of `CC[C@H](C)[C@@H]1NC(=O)[C@@H](CCN)NC(=O)[C@H]([C@@H](C)O)NC(=O)[C@H](CCN)NC(=O)[C@H](CCCNC(=N)N)NC(=O)[C@H](CC(N)=O)NC(=O)[C@@H](NC(=O)[C@H](Cc2ccc(O)cc2)NC(=O)[C@@H](NC(=O)[C@@H](NC(=O)[C@@H]2C[C@@H](O)CN2C(=O)[C@@H](N)C(C)C)[C@@H](C)CC)[C@@H](C)O)C(C)(C)SSC[C@@H](C(=O)N[C@@H](CCN)C(=O)N[C@@H](CCCNC(=N)N)C(=O)N[C@@H](Cc2ccc(O)cc2)C(=O)O)NC1=O` [Example 169] (HELM PEPTIDE1{V.[Hyp].I.T.Y.[Pen].N.R.[Dab].T.[NCC[C@@H](N[*:1])C(=O)[*:2]].I.C.[Dab].R.Y}$PEPTIDE1,PEPTIDE1,6:R3-13:R3$$$V2.0), the “Hemolysis at 0.2 g/L” value in series [1] worked out at 0%. In addition, in series [2], the “Escherichia coli ATCC 25922 MIC” value turned out to be 0.5 µg/mL. In series [3] (setting [5]), the “Escherichia coli MCR-1 Af 45 MIC” value stood at 0.25 µg/mL. In series [4], the “Klebsiella pneumoniae SSI3010 MIC” value amounted to 0.5 µg/mL.

For the compound `CC[C@H](C)[C@H](NC(=O)[C@@H]1C[C@@H](O)CN1C(=O)[C@@H](NC(=O)CN(CCN)C(=O)CNCCCCN)C(C)C)C(=O)N[C@H](C(=O)N[C@@H](Cc1ccc(O)cc1)C(=O)N[C@@H]1C(=O)N[C@@H](CC(N)=O)C(=O)N[C@@H](CCCNC(=N)N)C(=O)N[C@@H](CCN)C(=O)N[C@@H]([C@@H](C)O)C(=O)N[C@H](CCN)C(=O)N[C@@H](CCCCN)C(=O)N[C@H](C(=O)N[C@@H](Cc2ccc(O)cc2)C(=O)N[C@@H](CCCNC(=N)N)C(=O)N[C@@H](Cc2ccc(O)cc2)C(=O)O)CSSC1(C)C)[C@@H](C)O` [Example 61, Nlys-Ndab-Val-Hyp-Ile-Thr-Tyr-Pen-Asn-Arg-Dab-Thr-^DDab-Lys-Cys-Tyr-Arg-Tyr] (H-[Nlys][Gly(N-2-aminoethyl)]V[Hyp]ITY[Pen]NR[Dab]T[dDab]KCYRY-OH; disulfide 8-15), the “Hemolysis at 0.2 g/L” value in series [1] is given as 0%. Besides, in series [2], the “Escherichia coli ATCC 25922 MIC” value came out at 0.25 µg/mL. Besides, in series [3] (MCR-1 Af 45), the “Escherichia coli MCR-1 Af 45 MIC” value stood at 0.125 µg/mL. For the same compound, the “Klebsiella pneumoniae SSI3010 MIC” value in series [4] turned out to be 0.125 µg/mL.
